By IC50 is commonly meant the point on the concentration scale where inhibition reaches its midpoint.

The nature of data set [1]: Microsomal stability assay, mouse. Conditions: mouse microsomes; for half-life: read-out: Microsomal Stability (T1/2 min) Mouse. The data set is classed as in vitro ADME. As to the method: (§1) Microsomal stability assays were performed using mouse, rat, and human […] according to methods well-known in the art. Microsomal stability results are shown in Table 2 for selected compounds of the invention. The compound numbers correspond to the compound numbers in Table 1. […] “N/A” indicates not assayed.

Data set [2] is described as follows: Microsomal stability assay, human. Format: in vitro ADME. The note with it: human microsomes; for half-life: read-out: Microsomal Stability (T1/2 min) Human. As to the method: as §1
Data set [3] has as its target Nck SH3 domain interaction with the proline rich sequence of TCR subunit CD3ε (Homo sapiens, UniProt P16333). Briefly: Competitive binding, biosensor with Interferometric Optical Detection Method (IODM). The note with it: ratio of 1:1 between Nck SH3 domain and inhibitors; biotinylated CD3ε peptide on sensing surface. As to the method: Inhibition of Nck SH3 domain interaction with the proline rich sequence of TCR subunit CD3ε was measured by optical read-out of a biosensor based on the Interferometric Optical Detection Method (IODM), using established methods (WO 2010/026269; WO 2014/020159; Laguna, M. et al., Sensors, 2015, 15(8):19819-29; and Holgado, M. et al., Sensors, 2014, 14(2): 3675-89).
Briefly, a Biophotonic Cell (BICELL) based on Fabry-Perot interferometers was used as the photonic transducer. The BICELL was fabricated using SU8 in cyclopentanone according to known methods (e.g., Laguna, M. F. et al., Sensors, 2014, 14(4): 6695-6700). Cured film was then treated with 95% sulfuric acid for 10 seconds. Streptavidin was then immobilized on the sensing surface in phosphate buffered saline (PBS; pH 7.4) over 20 min at 37° C. followed by blocking of the surface with 5% skin milk in PBS (pH 7.4). Biotinylated CD3ε peptide (SEQ ID NO: 001) in PBS (pH 7.4) was incubated with the streptavidin coated film to biofunctionalize the sensing surface (20 min at 37° C.).
Competitive binding assays were performed to determine the affinity reaction of inhibitors. The screening was carried out using a ratio of 1:1 between Nck SH3 domain and inhibitors. The optical readout of the biosensor was accomplished by a Fourier transform visible-infrared (FT-VIS-IR) spectrometer. Competitive binding results are shown in Table 3 for selected compounds of the invention. The compound numbers correspond to the compound numbers in Table 1. Compounds having a designation of “A” provide an Increased Relative Optical Power (ΔIROP) of less than or equal to thirty percent (≤30%); compounds having a designation of “B” provide a ΔIROP of between thirty and fifty percent (>30% to ≤50%); compounds having a designation of “C” provide an ΔIROP of between fifty and seventy percent (>50% to ≤70%); and compounds having a designation of “D” provide a ΔIROP of greater than seventy percent (>70%).

In data set [4] the test system is CD3 mediated phosphorylation of ZAP70 in Jurkat cells. Briefly: CD3 mediated phosphorylation of ZAP70 in Jurkat cells (HTRF). The data set is classed as cell-based. Conditions: Jurkat cells stimulated with 20 μg/mL anti-CD3 antibody; for Emax: read-out: pZAP70 Inhibition - Maximum Percent Inhibition (% Inhibition); for IC50: read-out: pZAP70 Inhibition IC50. As to the method: Inhibition of CD3 mediated phosphorylation of ZAP70 in Jurkat cells was measured by a cellular based Homogeneous Time-Resolved Fluorescence (HTRF) assay utilizing a Total ZAP-70 HTRF kit.
Briefly, Jurkat cells (˜1.3×10^6 cells/mL) were harvested on the day of experimentation. Cells were washed with PBS and resuspended in Assay Buffer (RPMI 1640 media plus 10% FBS) and counted.
Jurkat cells were seeded in Assay media at a total volume of 4 μL/well (40K cells/well) in a 384-low volume white flat bottom plate. The cells were then incubated at 37° C./5% CO2 for 30 minutes. The cells were then treated in duplicate with test compounds (3×) and reference compounds (3×) in a total volume of 4 μL, respectively. A compound dilution scheme is exemplified in FIG. 1.
The plate was then transferred to an incubator maintained at 37° C./5% CO2 for 2 minutes. Following incubation, cells were stimulated with 20 μg/mL of anti-CD3 antibody (1 mg/mL stock) and assay media was used to bring the total well volume 4 μL/well. The plate was then transferred to the incubator maintained at 37° C./5% CO2 for 2.5 minutes. Following incubation, 4 μL of lysis buffer (4×) provided in the kit was added to each well. The plate was then incubated at RT for 1 hour with gentle shaking. Following incubation, 4 μL of detection mix was added to each well and the plate was sealed with a plate sealer and left overnight at RT in the dark.
The Envision reader was set-up for Eu^3+ cryptate and fluorescence emission was read at two different wavelengths (620 nm and 665 nm). • Excitation filter: UV2(TRF) 320 nm • Emission filter: 665 nm • 2nd Emission filter: Europium 615 nm • Measurement height (mm): 6.5 • Excitation light (%): 100 • Delay (μs): 50 • Window time (μs): 400 • Time between flashes (μs): 2000 • Number of flashes: 100 • Number of flashes for 2nd detector: 100
The data is represented by the signal form the two wavelengths:
The ratio of the signal is calculated for each individual well:
The data was plotted using Graph Pad Prism. The significance between untreated vs. treated groups was assessed by One-way ANOVA and Bonferroni posttest comparing all columns in the graph.
ZAP70 IC50 results are shown in Table 6 for select compounds of the invention. The compound numbers correspond to the compound numbers in Table 1. […] “ND” indicates not determined.
ZAP70 percent maximum inhibition results are shown in Table 7 for select compounds of the invention. The compound numbers correspond to the compound numbers in Table 1.
(TR-FRET usually uses a lanthanide donor and a delayed reading to cut background.)

The nature of data set [5]: Microsomal stability assay, rat. The data set is classed as in vitro ADME. The note with it: rat microsomes; for half-life: read-out: Microsomal Stability (T1/2 min) Rat. As to the method:
as §1

Setting [6] is: Homo sapiens, maximum inhibition.

Like-named read-outs stand apart in the source and are kept apart here.

Turning to `CN1CCN(C(=O)C2=C(c3ccc(F)cc3)c3ccccc3OC2)CC1` [Compound I-44], the half-life in data set [1], in data set [2] and in data set [5] was under 10 min each time. For the same compound, the “ΔIROP (Increased Relative Optical Power)” value in data set [3] is “D (a ΔIROP of greater than seventy percent (>70%))”. Further, the Emax in data set [4] (setting [6]) was in the range of 30 to 40%. The IC50 in data set [4] (Homo sapiens) lay in the range of 1 to 10 nM.

For the compound “4-((4-(4-fluorophenyl)-6-(trifluoromethoxy)-2H-chromen-3-yl)methyl)morpholine [Compound I-16]”, in data set [1] (half-life), the “Microsomal Stability (T1/2 min) Mouse” value is “B (a half-life of between ten (10) and thirty (30) minutes)”. Further, the “Microsomal Stability (T1/2 min) Human” value in data set [2] (half-life) is recorded as “A (a half-life of greater than thirty (>30) minutes)”. Further, the “ΔIROP (Increased Relative Optical Power)” value in data set [3] is “B (a ΔIROP of between thirty and fifty percent (>30% to ≤50%))”. Besides, the “pZAP70 Inhibition - Maximum Percent Inhibition (% Inhibition)” value in data set [4] (maximum inhibition) was “C (a percent maximum inhibition of between forty and greater than thirty percent (40%≥x>30%))”. For the same compound, in data set [4], the IC50 is under 1 nM. Further, the “Microsomal Stability (T1/2 min) Rat” value in data set [5] (half-life) is recorded as “C (a half-life of less than ten (<10) minutes)”.

For the compound `COc1ccc2c(c1)C(c1ccc(C(F)(F)F)cc1)=C(CN1CCCC1)CO2` [Compound I-20], the half-life in data set [1] was under 10 min; in data set [2] it was 10 to 30 min; in data set [5], under 10 min. For the same compound, the “ΔIROP (Increased Relative Optical Power)” value in data set [3] is “B (a ΔIROP of between thirty and fifty percent (>30% to ≤50%))”. Also, the Emax in data set [4] (setting [6]) was 40 to 50%. For the same compound, the IC50 in data set [4] (Homo sapiens) was under 1 nM.

As to `COc1ccc2c(c1)C(c1ccc(C#N)cc1)=C(CN1CCCC1)CO2` [Compound I-22], the half-life was under 10 min in data set [1], 10 to 30 min in data set [2] and under 10 min in data set [5]. For the same compound, the “ΔIROP (Increased Relative Optical Power)” value in data set [3] was “B (a ΔIROP of between thirty and fifty percent (>30% to ≤50%))”. In addition, the Emax in data set [4] (setting [6]) is at most 30%.

As to `O=C(O)CCOc1ccc2c(c1)C(c1ccc(F)cc1)=C(C(=O)N1CCCC1)CO2` [Compound I-40, 3-((4-(4-fluorophenyl)-3-(pyrrolidine-1-carbonyl)-2H-chromen-6-yl)oxy)propanoic acid], the half-life in data set [1], in data set [2] and in data set [5] was over 30 min each time. The “ΔIROP (Increased Relative Optical Power)” value in data set [3] was “D (a ΔIROP of greater than seventy percent (>70%))”. Moreover, the Emax in data set [4] (setting [6]) was 30 to 40%. In data set [4] (Homo sapiens), the IC50 lay within 1 to 10 nM.

Take `CC(C)c1ccc2c(c1)C(c1ccc(F)cc1)=C(C(=O)N1CCN(C)CC1)CO2` [Compound I-24]: the half-life in data set [1], in data set [2] and in data set [5] was under 10 min throughout. Besides, the “ΔIROP (Increased Relative Optical Power)” value in data set [3] is “C (an ΔIROP of between fifty and seventy percent (>50% to ≤70%))”. Besides, in data set [4] (setting [6]), the Emax was 40 to 50%. In data set [4] (Homo sapiens), the half-inhibitory concentration (IC50) was in the range of 1 to 10 nM.

`COc1ccc2c(c1)C(c1ccc(C#N)cc1)=C(C(=O)N1CCN(C)CC1)CO2` [Compound I-30]: the half-life in data set [1] was under 10 min; in data set [2], over 30 min; in data set [5], 10 to 30 min. The “ΔIROP (Increased Relative Optical Power)” value in data set [3] is “C (an ΔIROP of between fifty and seventy percent (>50% to ≤70%))”. For the same compound, the Emax in data set [4] (setting [6]) is 40 to 50%. The IC50 in data set [4] (Homo sapiens) was 1 to 10 nM.

Turning to `Fc1ccc(C2=C(c3nc(-c4ccccc4)no3)COc3ccc(OCC4CC4)cc32)cc1` [Compound I-12], the results for the half-life in data set [1], in data set [2] and in data set [5] were over 30 min, 10 to 30 min and over 30 min, respectively. In data set [3], the “ΔIROP (Increased Relative Optical Power)” value is “C (an ΔIROP of between fifty and seventy percent (>50% to ≤70%))”. Also, in data set [4] (setting [6]), the Emax is at most 30%.

For the compound `CC(C)Oc1ccc2c(c1)C(c1ccc(F)cc1)=C(C(=O)N1CCN(C)CC1)CO2` [Compound I-23], the half-life in data set [1] was under 10 min; in data set [2], 10 to 30 min; in data set [5] it was 10 to 30 min. In addition, the “ΔIROP (Increased Relative Optical Power)” value in data set [3] is “A (an Increased Relative Optical Power (ΔIROP) of less than or equal to thirty percent (≤30%))”. Also, the Emax in data set [4] (setting [6]) is over 50%. Moreover, the IC50 in data set [4] (Homo sapiens) lay in the range of 1 to 10 nM.

With `[2H]C([2H])([2H])Oc1ccc2c(c1)C(c1ccc(F)cc1)=C(CN1CCCC1)CO2` [Compound I-13], the half-life in data set [1] is under 10 min; in data set [2] it was 10 to 30 min; in data set [5], under 10 min. For the same compound, the “ΔIROP (Increased Relative Optical Power)” value in data set [3] was “A (an Increased Relative Optical Power (ΔIROP) of less than or equal to thirty percent (≤30%))”. Further, in data set [4] (setting [6]), the Emax is 40 to 50%. Further, in data set [4] (Homo sapiens), the IC50 was 1 to 10 nM.

Turning to `COc1ccc2c(c1)C(c1cccc(F)c1)=C(CN1CCCC1)CO2` [Compound I-21], the half-life is under 10 min in data set [1], 10 to 30 min in data set [2] and under 10 min in data set [5]. In addition, the “ΔIROP (Increased Relative Optical Power)” value in data set [3] is “C (an ΔIROP of between fifty and seventy percent (>50% to ≤70%))”. Besides, the Emax in data set [4] (setting [6]) lay in the range of 40 to 50%. Further, the IC50 in data set [4] (Homo sapiens) is 1 to 10 nM.

Turning to `O=C(O)CCOc1ccc2c(c1)C(c1ccc(F)cc1)=C(CN1CCCC1)CO2` [Compound I-33, 3-((4-(4-fluorophenyl)-3-(pyrrolidin-1-ylmethyl)-2H-chromen-6-yl)oxy)propanoic Acid], the half-life in data set [1], in data set [2] and in data set [5] was over 30 min in each case. The “ΔIROP (Increased Relative Optical Power)” value in data set [3] was “A (an Increased Relative Optical Power (ΔIROP) of less than or equal to thirty percent (≤30%))”. For the same compound, in data set [4] (setting [6]), the Emax was over 50%. Also, the IC50 in data set [4] (Homo sapiens) is 1 to 10 nM.

For `CN1CCN(C(=O)C2=C(c3ccc(F)cc3)c3cc(OC(F)F)ccc3OC2)CC1` [Compound I-3], the half-life is under 10 min in data set [1], 10 to 30 min in data set [2] and under 10 min in data set [5]. The “ΔIROP (Increased Relative Optical Power)” value in data set [3] was “B (a ΔIROP of between thirty and fifty percent (>30% to ≤50%))”. Besides, in data set [4] (setting [6]), the Emax is at most 30%. The IC50 in data set [4] (Homo sapiens) was under 1 nM.

Regarding `COc1ccc2c(c1)C(c1ccc(Cl)cc1)=C(CN1CCCC1)CO2` [Compound I-19], the half-life is under 10 min in data set [1], 10 to 30 min in data set [2] and under 10 min in data set [5]. In data set [3], the “ΔIROP (Increased Relative Optical Power)” value was “C (an ΔIROP of between fifty and seventy percent (>50% to ≤70%))”. The Emax in data set [4] (setting [6]) was over 50%. In addition, the IC50 in data set [4] (Homo sapiens) fell in the range of 1 to 10 nM.
